Test results reported in US20240190904A1, “Heteroaryl compounds as inhibitors of RIP2 kinase, composition and application thereof” (Accro Bioscience (HK) Limited, priority 2021, published 2024).
Values after ≈ are worked out from the molar mass of the structure shown. Each block holds one compound with its values, some of them ahead of it.

Legend:
[1] = Metabolic stability test, HLM; format: in vitro ADME; details: human, liver microsomes
Protocol: (§1) • 1. Buffers: • Buffer A: 1.0 L of 0.1 M monobasic Potassium Phosphate buffer containing 1.0 mM EDTA • Buffer B: 1.0 L of 0.1 M Dibasic Potassium Phosphate buffer containing 1.0 mM EDTA • Buffer C: 0.1 M Potassium Phosphate buffer, 1.0 mM EDTA, pH 7.4 by titrating 700 mL of buffer B with buffer A while monitoring with the pH meter. • 2. Reference compounds (Ketanserin) and test compounds spiking solution: • 500 μM spiking solution: add 10 μL of 10 mM DMSO stock solution into 190 μL ACN. • 1.5 μM spiking solution in microsomes (0.75 mg/mL): add 1.5 μL of 500 μM spiking solution and 18.75 μL of 20 mg/mL liver microsomes into 479.75 μL of Buffer C on ice. • 3. Prepare NADPH stock solution (6 mM) by dissolving NADPH into buffer C. • 4. Dispense 30 μL of 1.5 μM spiking solution containing 0.75 mg/mL microsomes solution to the assay plates designated for different time points (0-, 5-, 15-, 30-, 45-min) on ice. • 5. For 0-min time point, add 135 μL of ACN containing IS to the wells of 0-min plate and then add 15 μL of NADPH stock solution (6 mM). • 6. Pre-incubate all other plates at 37° C. for 5 minutes. • 7. Add 15 μL of NADPH stock solution (6 mM) to the plates to start the reaction and timing. • 8. At 5-min, 15-min, 30-min, and 45-min, add 135 μL of ACN containing IS to the wells of corresponding plates, respectively, to stop the reaction. • 9. After quenching, shake the plates at the vibrator (IKA, MTS 2/4) for 10 min (600 rpm/min) and then centrifuge at 5594 g for 15 min (ThermoMultifuge×3R). • 10. Transfer 50 μL of the supernatant from each well into a 96-well sample plate containing 50 μL of ultra pure water (Millipore, ZMQS50F01) for LC/MS analysis.

[2] = Metabolic stability test, DLM; format: in vitro ADME; details: dog, liver microsomes
Protocol: as §1

[3] = Caco-2 permeability test; format: in vitro ADME; details: human, Caco-2, pH 7.4
Protocol: (§2) • 1. Prewarm HBSS Buffer in 37° C. water bath • 2. Take compounds from −20° C., sonicate for a few minutes (no less than 1 minute) • 3. Solution preparation
(§3) For A-to-B direction: • HBSS buffer with 0.3% DMSO and 5 μM LY: add 150 μL DMSO and 50 μL LY (5 mM) into 50 ml HBSS buffer (pH7.4). • HBSS buffer with 0.1% DMSO and 5 μM LY: add 50 μL DMSO and 50 μL LY (5 mM) into 50 mL HBSS buffer (pH7.4).
(§4) For B-to-A direction: • HBSS buffer with 0.3% DMSO: add 150 μL DMSO into 50 ml HBSS buffer (pH7.4) • HBSS buffer with 0.1% DMSO: add 50 μL DMSO into 50 ml HBSS buffer (pH7.4).
(§5) Receiver Solution Buffer:
(§6) Prepare HBSS buffer with 0.4% DMSO: add 200 μL DMSO into 50 ml HBSS buffer (pH7.4).
(§7) For B-to-A direction: • Prepare HBSS buffer with 0.4% DMSO and 5 uM LY: add 200 μL DMSO and 50 μL LY (5 mM) into 50 ml HBSS buffer (pH7.4).
(§8) Take cell culture plate out of incubator, wash the cell monolayers with HBSS buffer, and then measure TEER values at Rm temperature. • 5. Centrifuge the compound solution (from step 3) at 4000 rpm for 5 min before loading to donor chambers. • 6. Add solution based on the volumes listed in the following table (make sure to take extra 100 uL of donor sample for T0 as Backup).
(§9) • 7. To determine LY concentration in the apical chamber, take 100 μL sample from apical chambers into an opaque plate for LYT0. • 8. Prewarm apical and basolateral plates at 37° C. for about 5 min, then begin transport by placing the apical plate onto basolateral plate. • 9. Keep the plates in incubator at 37° C. for 90 min • 10. Prepare 20× solution
(§10) • 11. Separate the apical plate from the basolateral plate after 90-min incubation. • 12. Take 100 μL samples from basolateral plate to an opaque plate as LYT90. • 13. Measure LY concentrations for LYT0 and LYT90 by Fluorometer (at excitation of 485 nm/emission of 535 nm). • 14. Sample preparation for LC-MS/MS: Donor or receiver samples are diluted by 0.4% DMSO HBSS, then mix with ACN with IS (Osalmid or Imipramine)

[4] = test system: Caco-2; assay: Caco-2 permeability test; format: in vitro ADME; details: Caco-2
Protocol: as §2, §3, §4, §5, §6, §7, §8, §9, §10

[5] = molecular target: RIP2 kinase (Homo sapiens (Human), UniProt O43353); assay: Binding affinity assay (Kd)
Chain of RIP2 kinase (O43353 whole entry): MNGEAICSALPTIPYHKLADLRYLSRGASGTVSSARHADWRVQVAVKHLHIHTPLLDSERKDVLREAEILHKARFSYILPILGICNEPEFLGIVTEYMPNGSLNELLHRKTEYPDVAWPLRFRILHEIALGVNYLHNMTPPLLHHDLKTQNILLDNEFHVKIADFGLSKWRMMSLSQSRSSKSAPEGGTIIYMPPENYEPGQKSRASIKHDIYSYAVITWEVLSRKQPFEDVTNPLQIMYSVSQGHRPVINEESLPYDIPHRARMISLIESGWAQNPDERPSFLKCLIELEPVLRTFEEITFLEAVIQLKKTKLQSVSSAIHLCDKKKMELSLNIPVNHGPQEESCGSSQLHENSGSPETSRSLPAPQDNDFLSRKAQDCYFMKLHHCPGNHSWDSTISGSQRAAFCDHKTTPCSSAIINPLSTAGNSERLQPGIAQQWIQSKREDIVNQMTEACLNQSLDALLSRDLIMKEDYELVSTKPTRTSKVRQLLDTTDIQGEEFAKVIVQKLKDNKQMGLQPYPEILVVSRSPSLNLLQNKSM
Protocol: For most assays, kinase-tagged T7 phage strains were prepared in an E. coli host derived from the BL21 strain. E. coli were grown to log-phase and infected with T7 phage and incubated with shaking at 32° C. until lysis. The lysates were centrifuged and filtered to remove cell debris. The remaining kinases were produced in HEK-293 cells and subsequently tagged with DNA for qPCR detection. Streptavidin coated magnetic beads were treated with biotinylated small molecule ligands for 30 minutes at room temperature to generate affinity resins for kinase assays. The liganded beads were blocked with excess biotin and washed with blocking buffer (SeaBlock (Pierce), 1% BSA, 0.05% Tween 20, 1 mM DTT) to remove unbound ligand and to reduce non-specific binding. Binding reactions were assembled by combining kinases, liganded affinity beads, and test compounds in 1× binding buffer (20% SeaBlock, 0.17×PBS, 0.05% Tween 20, 6 mM DTT). Test compounds were prepared as 111× stocks in 100% DMSO. Kds were determined using an 11-point 3-fold compound dilution series with three DMSO control points. All compounds for Kd measurements are distributed by acoustic transfer (non-contact dispensing) in 100% DMSO. The compounds were then diluted directly into the assays such that the final concentration of DMSO was 0.9%. All reactions performed in polypropylene 384-well plate. Each was a final volume of 0.02 ml. The assay plates were incubated at room temperature with shaking for 1 hour and the affinity beads were washed with wash buffer (1×PBS, 0.05% Tween 20). The beads were then re-suspended in elution buffer (1×PBS, 0.05% Tween 20, 0.5 μM nonbiotinylated affinity ligand) and incubated at room temperature with shaking for 30 minutes. The kinase concentration in the eluates was measured by qPCR.
An 11-point 3-fold serial dilution of each test compound was prepared in 100% DMSO at 100× final test concentration and subsequently diluted to 1× in the assay (final DMSO concentration=1%). Most Kds were determined using a compound top concentration=30,000 nM. If the initial Kd determined was <0.5 nM (the lowest concentration tested), the measurement was repeated with a serial dilution starting at a lower top concentration.
Binding constants (Kds) were calculated with a standard dose-response curve using the Hill equation: […]
The Hill Slope was set to −1.
Curves were fitted using a non-linear least square fit with the Levenberg-Marquardt algorithm.

[6] = Metabolic stability test, RLM; format: in vitro ADME; details: rat, liver microsomes
Protocol: as §1

[7] = Thermodynamic solubility test; format: physicochemical; details: thermodynamic from solid; FaSSIF pH 6.5, thermodynamic
Protocol: • a. Add assay buffer into compound powder to make 4 mg/mL solution. • b. Sample tubes are shaken for 1 hour (1000 rpm), then equilibrated over night at room temperature. • c. Samples are centrifuged (10 min-12000 rpm) to precipitate un-dissolved particles. • d. Supernatants are transferred to new tubes. • e. Concentrations of the supernatants after centrifugation are determined by LCMSMS detection.

[8] = Pharmacokinetic evaluation in mice; format: in vivo
Protocol: The mice pharmacokinetic characteristics of compounds were tested by standard protocols. The candidate compounds were made into clear solution for single intravenous injection (i.v.) and suspension for oral administration (p.o.). Intravenous vehicle is 5% DMSO+95% Saline while oral vehicle is 0.5% CMCNa. The experiment used 48 male mice and 24 mice for intravenous at a dose of 2 mg/kg. Plasma samples were collected at 0 h (before dosing) and 0.083 h, 0.25 h, 0.5 h, 1 h, 2 h, 4 h, 8 h, 24 h after dosing. Another 24 mice were orally administrated with a dose of 10 mg/kg. Plasma samples were collected at 0 h (before dosing) and 0.25 h, 0.5 h, 1 h, 2 h, 4 h, 6 h, 8 h, 24 h after dosing.
Blood samples were placed in tubes containing K2-EDTA and stored on ice until centrifuged. The blood samples were centrifuged at 6800 g for 6 minutes at 2-8° C. within 1 h after collected and stored frozen at approximately −80° C.
The analytical results were confirmed using quality control samples for intra-assay variation. The accuracy of >66.7% of the quality control samples and 50% of all QC samples at each concentration level were between 80-120% of the known value(s).
Standard set of parameters including Area Under the Curve (AUC(0-t) and AUC(0-∞)), elimination half-live (T1/2), maximum plasma concentration (Cmax), time to reach maximum plasma concentration (Tmax) were calculated using noncompartmental analysis modules in FDA certified pharmacokinetic program Phoenix WinNonlin 7.0 (Pharsight, USA) by the Study Director.

[9] = Protein binding test (dialysis), rat; format: in vitro ADME
Protocol: (§11) • 1. Spiking Solutions of Test and Reference Compounds • 1.1 Solution A (0.5 mM): Add 10 μL of 10 mM stock solution into 190 μL of DMSO. • 1.2 Solution B (0.02 mM): Add 8 μL of Solution A into 192 μL of 0.05 M sodium phosphate buffer. The final DMSO concentration in Solution B is 4%. • 2. Preparation of Test and Reference Compounds • 2.1 Preload a 96-well plate with 380 μL aliquots of plasma in the wells designated for plasma and buffer, respectively. • 2.2 Spike 20 μL of Solution B (0.02 mM of test and reference compounds) into the pre-loaded plasma in the 96-well plate. The final test concentration is 1 μM containing 0.2% DMSO. • 3. Dialysis Sample Loading • 3.1 Preparing plasma against buffer system (duplicate): Apply aliquots of 100 μL of blank dialysis buffer to the receiver side of dialysis chambers. Then apply aliquots of 100 μL of the plasma spiked with test and reference compounds to the donor side of the dialysis chambers. • 3.2 Preparing T0 plasma samples for initial concentrations (duplicate): • 3.2.1 Aliquot 25 μL of the plasma spiked with test and reference compounds into a 96-well sample preparation plate as T0 plasma samples • 3.2.2 Mix the aliquots with same volume of blank buffer (50:50, v/v). • 3.2.3 Quench the samples with 200 μL of acetonitrile containing internal standard (IS). • 3.3 Cover the dialysis block with a plastic lid and place the entire apparatus in a shaker (60 rpm) for 5 hours at 37° C. • 3.4 Preparing dialyzed samples after 5-hour incubation: • 3.4.1 Aliquot 25 μL from both the donor sides and receiver sides of the dialysis apparatus into new sample preparation plates and mix the aliquots with same volume of opposite matrixes (blank buffer to plasma and vice versa). • 3.4.2 Quench the samples with 200 μL acetonitrile containing internal standard (IS). Vortex all the samples (from 0 h and 5 h) at 600 rpm for 10 min followed by centrifugation at 5594 g for 15 minutes (ThermoMultifuge×3R). • 3.4.3 Transfer 50 μL of the supernatants to a new 96-well plate and mix the samples with 50 μL of Milli-Q water. Cover the sample plate and store it in a freezer (−20° C.) until LC/MS/MS analysis.

[10] = Protein binding test (dialysis), human; format: in vitro ADME
Protocol: as §11

[11] = Protein binding test (dialysis), dog; format: in vitro ADME
Protocol: as §11

[12] = male, mouse, plasma, iv, i.v. 2 mg/kg
[13] = male, mouse, plasma, po, p.o. 10 mg/kg

CLint scaled at 1 μM ([1]; pH 7.4, read-out: Cl (mL/min/kg) HLM): 0.69 mL/min/kg
half-life at 1 μM ([1]; pH 7.4, read-out: T1/2 (min) HLM): 2520 min
CLint scaled at 1 μM ([2]; pH 7.4, read-out: Cl (mL/min/kg) DLM): 17.4 mL/min/kg
half-life at 1 μM ([2]; pH 7.4, read-out: T1/2 (min) DLM): 198 min
Papp A→B at 90 min ([3]; A-B): < 0.14 ×10⁻⁶ cm/s
Papp B→A at 90 min ([3]; B-A): 0.27 ×10⁻⁶ cm/s
efflux ratio at 90 min ([3]; efflux ratio, read-out: Caco-2 Permeability B-A/A-B): > 1.93
permeability (in words) [4]: low
Kd [5]: 1.4 nM
CLint scaled at 1 μM ([6]; pH 7.4, read-out: Cl (mL/min/kg) RLM): 31.6 mL/min/kg
half-life at 1 μM ([6]; pH 7.4, read-out: T1/2 (min) RLM): 78.7 min
solubility [7]: 4.33 mM (≈ 2170 µg/mL)
Compound: CP(C)(=O)c1cc2c(Nc3ccc4scnc4c3)ccnc2cc1-c1cnn(C2CCNCC2)c1 [A13]

AUC [8, 12]: 6510 ng·h/mL
Vd [8, 12]: 0.59 L/kg
clearance [8, 12]: 4.3 mL/min/kg
half-life [8, 12]: 1.6 h
AUC [8, 13]: 68300 ng·h/mL
Cmax [8, 13]: 19200 ng/mL
Tmax [8, 13]: 0.7 h
F ([8]; p.o. 10 mg/kg): 210%
protein binding in rat (in words) ([9]; rat): high protein binding
fraction unbound at 5 h, 1 μM ([9]; rat plasma, 1 μM): 0.006
Kd [5]: 6.4 nM
protein binding in human (in words) ([10]; human): moderate
fraction unbound at 5 h, 1 μM ([10]; human plasma, 1 μM): 0.032
protein binding in dog (in words) ([11]; dog): moderate
fraction unbound at 5 h, 1 μM ([11]; dog plasma, 1 μM): 0.05
Compound: CP(C)(=O)c1cc2c(Nc3ccc4scnc4c3)ccnc2cc1OC(F)F [A25]
plasma exposure and bioavailability in mice (in words) [8]: excellent plasma exposure and bioavailability
